Measurements from article PMC11982498 (Redox Biology, 2025).

Key:
[1] = test system: F-BCL-2 (BCL-2 IM) (DNA, i motif) CAGCCCCGCTCCCGCCCCCTTCCTCCCGCGCCCGCCCCT; assay: MST, Hill fit; conditions: K+ 100 mM KCl plus potassium phosphate; BPES buffer (30 mM phosphate, 1 mM EDTA), pH 5.5
bEnd.3 = assay: MTT cytotoxicity assay, bEnd.3; type: cell-based; conditions: BEND3; incubation for 48 h
Aβ1-42 = molecular target: T1, Aβ1-42 (Homo sapiens, UniProt P05067); assay: Congo red binding assay; type: biochemical; conditions: 20 μM compound, 72 h
T1 construct: Aβ1-42 was purchased from Gill Biochemicals Ltd (Shanghai, China); purchased Gill Biochemicals Ltd (Shanghai, China)
Procedure: (§1) A total of 30 μM Congo red (Aladdin, Shanghai, China) solution (20 mM potassium phosphate, 50 mM NaCl, pH 7.4) was prepared and filtered with a 0.45 μm filter. The Aβ1-42 solutions (30 μM) were co-incubated with B14 (20 μM), A22 (20 μM), or Curcumin (20 μM) at 37 °C protected from light for 72h. The Aβ1-42 solution was mixed with equal volume of Congo red solution, followed by incubation for 30 min. A spectral region from 400 nm to 650 nm was measured by using a UV–vis spectrophotometer (AoE, China).
as §1, with “red” for “red (Aladdin, Shanghai, China)”, “μM) and” for “μM), A22 (20 μM), or”, “solution and incubated” for “solution, followed by incubation”, “analyzed” for “measured”, “UV-vis” for “UV–vis”

[2] = test system: BCL-2 gene transcription in SH-SY5Y cells; assay: Real-time RT-PCR in 25 μM Aβ1-42 cell model, BCL-2; type: cell-based, human
Procedure: SH-SY5Y cells were treated with or without B14, and total RNA was subsequently isolated and purified. Reverse transcription was performed using a cDNA synthesis kit. The relative transcription levels of the genes were evaluated through quantitative real-time PCR using the SYBR Green-based method, as described in the Supplementary Date. Details regarding the primer sequences and the raw data can be found in Table S7 and Table S8.
^a -∆∆Ct = -[(Ct value of genes in treated sample - Ct value of genes in control) - (Ct value of β-actin in treated sample - Ct value of β-actin in control)]. ^b F: The relative expression fold.
Experiment 2: The Ct values of BCL-2 and Bax in 25 μM Aβ1-42 model with different concentration of B14.
Total RNA was extracted from cells and mice liver tissue using RNAiso Plus (Takara, 9109, Japan). Following sample homogenization, chloroform was added, and the solution was allowed to have phase separation into an upper aqueous layer (containing RNA), an interphase, and a lower organic layer (containing DNA and proteins). RNA was precipitated from the aqueous phase using isopropanol, while DNA was precipitated from the aqueous-organic interphase using ethanol. Complementary DNA (cDNA) was synthesized using the One-Step RT-PCR Kit (Takara, Cat#639503, Japan).
Quantitative real-time polymerase chain reaction (qRT-PCR) was performed using the 2× RealStar SYBR Mixture (GenStar, Cat# A301-10, Guangzhou, China) on a LightCycler 480 II real-time PCR system (Roche, USA). Data were analyzed using the 2^−ΔΔCt method. Actin served as the internal control, and relative mRNA levels were normalized accordingly.

[3] = test system: bio-ILPR (DNA, i motif) TGTCCCCACACCCCTGTCCCCACACCCCTGT; assay: SPR; conditions: K+ 100 mM; 20 mM MES, pH 5.5, 25 °C
APP/PS1 transgenic mice = assay: TEM of hippocampus microstructure; type: in vivo; conditions: vs model group
Text: Five months old male APP/PS1 mice, weighing 25–33 g, were purchased from Guangdong Medical Laboratory Animal Center and housed in the Laboratory Animal Center of Sun Yat-sen University (Guangzhou, China) for experimentation. All procedures were approved by the Animal Care and Use Committee of Sun Yat-sen University and complied with legal requirements and national guidelines for the care and maintenance of laboratory animals (Approval No. SYSU-IACUC-2024-002032). The mice were housed in a specific pathogen-free environment with a controlled temperature of 22 ± 1 °C and a 12-h dark/light cycle. The mice were fed with a standard diet, and 30 mice were randomly divided into 6 groups (N = 5). Compound B14 was dissolved in saline and administered at doses of 10, 20, or 40 mg/kg. APP/PS1 male mice were grown until 6 months of age, and then injected intraperitoneally with compound B14 every other day for 60 days. Behavioral experiments were then conducted, and tissue specimens were collected for biochemical analysis.
After the behavioral tests, the mice were anesthetized and perfused with 0.1 M pre-cooled phosphate-buffered saline for 5 min, followed by 4 % pre-cooled paraformaldehyde until the mice were stiff. The hippocampi were then extracted and fixed in 3 % pre-cooled glutaraldehyde solution for 6 h, cut into 0.5–1 mm^3 blocks, and post-fixed in 1 % osmium tetroxide for 60 min. […]

RB promoter i-motif = assay: TO displacement assay, RB i-motif; type: binding
Procedure: DNA oligonucleotides were diluted to 1 μM with 1 × PBES buffer at pH 5.5, annealed at 95 °C for 10 min, cooled to room temperature, and stored at 4 °C for future use. TO dye (1 μM) was added to the DNA solution followed with incubation for 1 h. The spectra of 100 μL mixture with addition of different equivalent compounds at 25 °C were recorded based on fluorescence emission (λex = 480 nm).
TO displacement ratio (%) = (F0 − FC) / (F0 − FB) * 100.
F0 and FC were the fluorescence intensity of TO at 536 nm with DNA before and after adding compounds, respectively. FB was the fluorescence intensity of TO at 536 nm with buffer only.

T1 sequence (P05067 672-713 limits assumed): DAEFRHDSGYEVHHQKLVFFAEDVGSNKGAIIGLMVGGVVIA

O=C(CCN1CCOCC1)Nc1ccc2c(c1)c(=O)c1cc(NC(=O)CCN3CCOCC3)ccc1n2-c1ccc2occc2c1 [Compound B14]
KD [1]: 1.06 µM
IC50 (bEnd.3): > 100 µM
absorbance of Congo red in the Aβ1-42 sample (Aβ1-42): significantly reduced
-∆∆Ct, BCL-2 ([2]; 25 μM Aβ1-42 + 6.25 μM B14): -0.05
F = 2^-∆∆Ct (relative expression fold), BCL-2 ([2]; 25 μM Aβ1-42 + 6.25 μM B14): 1.04
-∆∆Ct, BCL-2 ([2]; 25 μM Aβ1-42 + 12.5 μM B14): -0.48
F = 2^-∆∆Ct (relative expression fold), BCL-2 ([2]; 25 μM Aβ1-42 + 12.5 μM B14): 1.40
-∆∆Ct, BCL-2 ([2]; 25 μM Aβ1-42 + 25 μM B14): -0.82
F = 2^-∆∆Ct (relative expression fold), BCL-2 ([2]; 25 μM Aβ1-42 + 25 μM B14): 1.76
KD [3]: > 50 µM
hippocampal ultrastructure (myelin, synapses, mitochondria; TEM) (APP/PS1 transgenic mice): the degree of mitochondrial damage was much reduced
TO displacement ratio (RB promoter i-motif): 1%
